The results in this text go back to patent publication US20130197009A1, “ANTAGONIST FOR MUTANT ANDROGEN RECEPTOR” (ASTELLAS PHARMA INC., priority 2010, published 2013).

Test [1] concerns the target T1, human T877A mutant AR (Homo sapiens, UniProt P10275, T878A).
T1 construct: expressed in transfected cells; host or cells: CHO-K1
T1 sequence (P10275 1-920 T878A): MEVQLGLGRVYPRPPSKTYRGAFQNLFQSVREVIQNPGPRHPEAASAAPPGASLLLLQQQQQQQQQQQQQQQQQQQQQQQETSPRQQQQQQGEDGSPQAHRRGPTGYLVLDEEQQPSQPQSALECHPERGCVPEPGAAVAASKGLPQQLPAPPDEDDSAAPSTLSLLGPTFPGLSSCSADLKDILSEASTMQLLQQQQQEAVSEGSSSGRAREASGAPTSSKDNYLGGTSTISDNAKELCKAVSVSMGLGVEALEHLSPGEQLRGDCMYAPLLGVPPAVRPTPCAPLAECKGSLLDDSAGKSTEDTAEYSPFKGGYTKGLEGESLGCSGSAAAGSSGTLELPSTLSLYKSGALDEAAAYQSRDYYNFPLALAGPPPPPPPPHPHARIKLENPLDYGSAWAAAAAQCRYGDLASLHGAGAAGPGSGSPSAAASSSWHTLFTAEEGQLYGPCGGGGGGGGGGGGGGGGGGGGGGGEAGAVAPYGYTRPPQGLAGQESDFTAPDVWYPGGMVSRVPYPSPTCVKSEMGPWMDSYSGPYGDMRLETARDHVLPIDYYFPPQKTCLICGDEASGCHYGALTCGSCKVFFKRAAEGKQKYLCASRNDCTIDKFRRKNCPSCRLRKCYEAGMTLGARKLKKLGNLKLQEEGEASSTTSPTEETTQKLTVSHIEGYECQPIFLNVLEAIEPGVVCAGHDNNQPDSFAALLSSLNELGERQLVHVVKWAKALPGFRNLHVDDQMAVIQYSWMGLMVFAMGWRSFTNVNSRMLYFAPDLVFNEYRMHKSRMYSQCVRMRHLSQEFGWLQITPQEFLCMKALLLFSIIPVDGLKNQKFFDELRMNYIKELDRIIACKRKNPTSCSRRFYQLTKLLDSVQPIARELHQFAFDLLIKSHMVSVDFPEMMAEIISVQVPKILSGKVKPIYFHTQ
Nature of the test: Inhibitory action against transcriptional activation of mutant AR (luciferase reporter, CHO-K1 cells, DHT 0.3 nM). It is filed as cell-based. The following applies: CHO-K1 cells stably expressing T877A mutant AR, with DHT 0.3 nM, >1000 nM means no inhibitory action observed, read-out: IC50, inhibition of transcriptional activation, T877A. The method, then:
Subsequently, the cells were incubated overnight again at 37° C. and then treated with a luciferase assay system.
An IC50 value was calculated by Sigmoid-Emax model nonlinear regression analysis.
The inhibitory action of the respective test compounds against the receptor was calculated as an IC50 value, and the values are described in the following table. In addition, “-” means that the test was not performed.

Test [2] has as its target T2, wild type AR (Wild) (Homo sapiens, UniProt P10275).
T2 sequence (P10275 1-920): T1 sequence (P10275 1-920 T878A) with A878T
Nature of the test: Inhibitory action against transcriptional activation of AR (luciferase reporter, CHO-K1 cells, DHT 0.3 nM). Background: In a reporter assay the amount or activity of a reporter protein is the signal.

Residue numbers refer to the chain shown, from its start.

For the compound `COc1ncc(NC(=O)N2C[C@H](C)N(c3ccc(C#N)c(Br)c3)C[C@H]2C)cn1` [Ex 11, (2R,5S)-4-(3-bromo-4-cyanophenyl)-N-(2-methoxypyrimidin-5-yl)-2,5-dimethylpiperazine-1-carboxamide], the IC50 was determined as 23 nM in test [1] and 26 nM in test [2]. Taken in the same sequence, the figures for `CC(C)Oc1cc(N2C[C@@H](C)N(C(=O)Nc3cnc(C4CC4)nc3)C[C@@H]2C)ccc1C#N` [Ref 1-1, reference compound] were 350 nM and 140 nM. The matching figures for `C[C@@H]1CN(c2ccc(C#N)c(Cl)c2)[C@@H](C)CN1C(=O)Nc1cnc2ccccc2n1` [Ref 1-3, (2R,5S)-4-(3-chloro-4-cyanophenyl)-2,5-dimethyl-N-(quinoxalin-2-yl)piperazine-1-carboxamide, reference compound]: 680 nM and 51 nM. `COc1cc(N2C[C@@H](C)N(C(=O)Nc3cc(C)nc(C)n3)C[C@@H]2C)ccc1C#N` [Ex 7, (2R,5S)-4-(4-cyano-3-methoxyphenyl)-N-(2,6-dimethylpyrimidin-4-yl)-2,5-dimethylpiperazine-1-carboxamide] came in with an IC50 in test [2] of 76 nM.

With `Cc1cc(NC(=O)N2C[C@H](C)N(c3ccc(C#N)c(Cl)c3)C[C@H]2C)cc(Cl)n1` [Ex 16, (2R,5S)-4-(3-chloro-4-cyanophenyl)-N-(2-chloro-6-methylpyridin-4-yl)-2,5-dimethylpiperazine-1-carboxamide], the IC50 in test [1] was 24 nM; in test [2], 45 nM. In test [2], `C[C@@H]1CN(c2ccc(C#N)c(Cl)c2)[C@@H](C)CN1C(=O)Nc1cnc(N2CCCCC2)nc1` [Ex 8, (2R,5S)-4-(3-chloro-4-cyanophenyl)-2,5-dimethyl-N-[2-(piperidin-1-yl)pyrimidin-5-yl]piperazine-1-carboxamide] yielded an IC50 of 17 nM. As for `COc1cc(NC(=O)N2C[C@H](C)N(c3ccc(C#N)c(Br)c3)C[C@H]2C)cc(C)n1` [Ex 19, (2R,5S)-4-(3-bromo-4-cyanophenyl)-N-(2-methoxy-6-methylpyridin-4-yl)-2,5-dimethylpiperazine-1-carboxamide], the IC50 in test [1] turned out to be 19 nM; in test [2], 11 nM. Turning to `COc1cc(NC(=O)N2C[C@H](C)N(c3ccc(C#N)c(Cl)c3)C[C@H]2C)cc(C)n1` [Ex 18, (2R,5S)-4-(3-chloro-4-cyanophenyl)-N-(2-methoxy-6-methylpyridin-4-yl)-2,5-dimethylpiperazine-1-carboxamide], the IC50 in test [1] worked out at 15 nM; in test [2], 10 nM.

In the case of `COc1cc(N2C[C@@H](C)N(C(=O)Nc3nc(C)cc(O)n3)C[C@@H]2C)ccc1C#N` [Ref 1-2, reference compound], the results for the IC50 in test [1] and in test [2] were 89 nM and 58 nM, respectively.

A word on the IC50: it is the point on the concentration scale where inhibition reaches its midpoint.
